The text below walks through data of ChEMBL document CHEMBL4020783, “Cytotoxic pterosins from Pteris multifida roots against HCT116 human colon cancer cells” (Bioorg Med Chem Lett, 2017).

Active and inactive are the calls of the source. No cut-off for these calls is given here.

A word on the IC50: it is the midpoint of a concentration-inhibition curve.

Assay [1] concerns HCT-116. Put plainly: Cytotoxicity against human HCT116 cells assessed as reduction in cell viability after 48 hrs by MTT assay. The assay is classed as functional, cell-based. As to conditions: HCT-116, 48 h. (In general: Tetrazolium dyes change colour on reduction, which living cells bring about.)
For assay [2], the system named is HCT-116. Put plainly: Induction of apoptosis in human HCT116 cells assessed as early apoptotic cells at 50 uM after 48 hrs by Annexin-V/propidium iodide staining-based flow cytometric analysis (reference value: 4.2%). The assay is classed as functional. In general terms: A flow cytometer gives signals particle by particle.
Assay [3] concerns HCT-116. Put plainly: Induction of apoptosis in human HCT116 cells assessed as increase in caspase-9 protein expression after 48 hrs by Western blot analysis. The assay is classed as functional, cell-based.
In assay [4] the test system is HCT-116. Put plainly: Induction of apoptosis in human HCT116 cells assessed as early apoptotic cells at 10 uM after 48 hrs by Annexin-V/propidium iodide staining-based flow cytometric analysis (reference value: 4.2%). The assay is classed as functional.
The subject of assay [5] is HCT-116. Briefly: Induction of apoptosis in human HCT116 cells assessed as increase in cleaved caspase-9 protein expression after 48 hrs by Western blot analysis. The assay is classed as functional, cell-based. Background: Immunoblotting shows a protein as a band on a membrane.
In assay [6] the test system is HCT-116. Briefly: Induction of morphological changes in human HCT116 cells assessed as cell rounding and shrinkage. The assay is classed as functional, cell-based.
Assay [7] has as its system HCT-116. Put plainly: Induction of apoptosis in human HCT116 cells assessed as late apoptotic cells at 10 uM after 48 hrs by Annexin-V/propidium iodide staining-based flow cytometric analysis (reference value: 9.3%). The assay is classed as functional.
The subject of assay [8] is HCT-116. Briefly: Induction of apoptosis in human HCT116 cells assessed as late apoptotic cells at 50 uM after 48 hrs by Annexin-V/propidium iodide staining-based flow cytometric analysis (reference value: 9.3%). The class given is functional.

As to `O=c1[nH]cc(F)c(=O)[nH]1` [FLUOROURACIL], the IC50 in assay [1] amounted to 41.9 µM.

For `Cc1cc2c(c(C)c1CCO)C(=O)[C@H](C)[C@@H]2O`, the IC50 in assay [1] came out at 253 µM.

On to `Cc1cc2c(c(C)c1CCO)C(=O)[C@@H](C)[C@@H]2O[C@@H]1O[C@H](CO)[C@@H](OC(=O)/C=C/c2ccc(O)c(O)c2)[C@H](O)[C@H]1O`, for which the Activity is 17.1% in assay [2]; “Dose-dependent effect” in assay [3]; 6.2% in assay [4]; “Dose-dependent effect” in assay [5]; 20.9% in assay [7]; 31.6% in assay [8]. The IC50 in assay [1] was 8 µM. For the same compound, the outcome in assay [6] was Active.

For the compound `Cc1cc2c(c(CO)c1CCO)C(=O)C(C)(C)[C@@H]2O`, the IC50 in assay [1] was determined as 120 µM.

For `Cc1cc2c(c(C)c1CCO)C(=O)[C@](C)(CO)[C@@H]2O`, the IC50 in assay [1] was 106 µM.

For `Cc1cc2c(c(CO)c1CCO[C@@H]1O[C@H](CO)[C@@H](O)[C@H](O)[C@H]1O)C(=O)C(C)(C)[C@@H]2O`, the IC50 in assay [1] was determined as 81.2 µM.

For the compound `Cc1cc2c(c(C)c1CCO)C(=O)[C@@H](C)[C@@H]2O[C@@H]1O[C@H](CO)[C@@H](O)[C@H](O)[C@H]1O`, the IC50 in assay [1] was determined as 32.9 µM.

`CO[C@@H]1c2cc(C)c(CCO)c(C)c2C(=O)[C@H]1C`: the IC50 in assay [1] was found to be 79.4 µM.

As for `Cc1cc2c(c(C)c1CCO)C(=O)[C@@H](C)[C@@H]2O`, in assay [1], the IC50 was found to be 72.9 µM.

Take `Cc1cc2c(c(C)c1CCO[C@@H]1O[C@H](CO)[C@@H](O)[C@H](O)[C@H]1O)C(=O)[C@H](C)C2`: the IC50 in assay [1] was determined as 80.7 µM.

In the case of `Cc1cc2c(c(C)c1CCO)C(=O)[C@H](C)C2`, the IC50 in assay [1] was 50.1 µM.

For the compound `Cc1cc2c(c(C)c1CCO)C(=O)C(C)(C)[C@@H]2O`, the IC50 in assay [1] came to 184 µM.

Regarding `Cc1cc2c(c(C)c1CCO)C(=O)[C@@H](C)[C@@H]2O[C@@H]1O[C@H](COC(=O)/C=C/c2ccc(O)cc2)[C@@H](O)[C@H](O)[C@H]1O`, the IC50 in assay [1] was 17.2 µM.
